Reference: patent US9518052B2, “Pyrazolopyridines and pyrazolopyrimidines” (Pfizer Inc., priority 2014, dated 2016)
Structures can show the parent of a compound that is named as a salt.

Columns and labels:
Format in all cases: biochemical
Conditions in all cases: Caliper assay at 1 mM ATP
JAK1 = JAK1 (Homo sapiens (Human), UniProt P23458); experiment: JAK Caliper Enzyme Assay at 1 mM ATP (JAK1)
Experimental: (§1) JAK Caliper Enzyme Assay at 1 mM ATP
(§2) Test article was solubilized in dimethyl sulfoxide (DMSO) to a stock concentration of 30 mM. An 11-point half log dilution series was created in DMSO with a top concentration of 600 μM. […] The compound plates were diluted 1 to 60 resulting in a top final assay compound concentration of 10 μM and a 2% DMSO concentration.
(§3) Test article and assay controls were added to a 384-well plate. Reaction mixtures contained 20 mM HEPES, pH 7.4, 10 mM magnesium chloride, 0.01% bovine serum albumin (BSA), 0.0005% Tween 20, 1 mM ATP and 1 μM peptide substrate. […] Enzyme concentrations and incubation times were optimized for each new enzyme preps and were modified slightly over time to ensure 20%-30% phosphorylation. The assays were stopped with a final concentration of 10 mM EDTA, 0.1% Coating Reagent and 100 mM HEPES, pH=7.4. The assay plates were placed on a Caliper Life Science Lab Chip 3000 (LC3000) instrument, and each well was sampled using appropriate separation conditions to measure the unphosphorylated and phosphorylated peptide.

JAK3 = JAK3 (Homo sapiens (Human), UniProt P52333); experiment: JAK Caliper Enzyme Assay at 1 mM ATP (JAK3)
Sequence of JAK3 (P52333 whole entry, species assumed): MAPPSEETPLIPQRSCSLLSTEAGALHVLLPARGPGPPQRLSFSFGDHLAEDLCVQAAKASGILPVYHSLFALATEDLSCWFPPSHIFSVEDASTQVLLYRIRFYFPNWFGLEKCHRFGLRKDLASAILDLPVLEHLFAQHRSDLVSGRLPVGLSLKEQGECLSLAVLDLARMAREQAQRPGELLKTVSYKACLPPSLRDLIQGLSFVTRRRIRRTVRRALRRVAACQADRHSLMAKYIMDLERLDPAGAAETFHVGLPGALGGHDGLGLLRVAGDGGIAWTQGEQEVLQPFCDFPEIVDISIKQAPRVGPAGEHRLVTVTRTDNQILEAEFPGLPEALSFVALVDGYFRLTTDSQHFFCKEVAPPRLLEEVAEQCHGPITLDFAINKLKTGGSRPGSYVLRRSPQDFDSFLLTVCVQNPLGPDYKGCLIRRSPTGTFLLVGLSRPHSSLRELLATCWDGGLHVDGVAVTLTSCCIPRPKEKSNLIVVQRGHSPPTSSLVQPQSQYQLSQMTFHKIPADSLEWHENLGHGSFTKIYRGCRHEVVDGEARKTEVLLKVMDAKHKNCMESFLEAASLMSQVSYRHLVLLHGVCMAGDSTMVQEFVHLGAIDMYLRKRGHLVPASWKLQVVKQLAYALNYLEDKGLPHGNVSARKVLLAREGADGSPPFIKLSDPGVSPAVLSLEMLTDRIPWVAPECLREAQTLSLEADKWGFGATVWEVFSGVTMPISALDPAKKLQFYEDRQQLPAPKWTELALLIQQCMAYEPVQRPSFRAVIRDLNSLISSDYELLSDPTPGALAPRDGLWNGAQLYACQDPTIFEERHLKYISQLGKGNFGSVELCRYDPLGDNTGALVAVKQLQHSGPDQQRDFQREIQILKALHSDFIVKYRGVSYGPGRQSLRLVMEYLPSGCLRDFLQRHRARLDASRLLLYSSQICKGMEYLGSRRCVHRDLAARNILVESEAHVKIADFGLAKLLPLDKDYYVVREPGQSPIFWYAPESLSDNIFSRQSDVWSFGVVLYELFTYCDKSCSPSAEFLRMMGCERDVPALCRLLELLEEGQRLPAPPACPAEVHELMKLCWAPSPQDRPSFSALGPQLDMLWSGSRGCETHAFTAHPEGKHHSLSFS
Experimental: as §1, §2, §3

TYK2 = TYK2 (Homo sapiens (Human), UniProt P29597); experiment: JAK Caliper Enzyme Assay at 1 mM ATP (TYK2)
Sequence of TYK2 (P29597 whole entry, species assumed): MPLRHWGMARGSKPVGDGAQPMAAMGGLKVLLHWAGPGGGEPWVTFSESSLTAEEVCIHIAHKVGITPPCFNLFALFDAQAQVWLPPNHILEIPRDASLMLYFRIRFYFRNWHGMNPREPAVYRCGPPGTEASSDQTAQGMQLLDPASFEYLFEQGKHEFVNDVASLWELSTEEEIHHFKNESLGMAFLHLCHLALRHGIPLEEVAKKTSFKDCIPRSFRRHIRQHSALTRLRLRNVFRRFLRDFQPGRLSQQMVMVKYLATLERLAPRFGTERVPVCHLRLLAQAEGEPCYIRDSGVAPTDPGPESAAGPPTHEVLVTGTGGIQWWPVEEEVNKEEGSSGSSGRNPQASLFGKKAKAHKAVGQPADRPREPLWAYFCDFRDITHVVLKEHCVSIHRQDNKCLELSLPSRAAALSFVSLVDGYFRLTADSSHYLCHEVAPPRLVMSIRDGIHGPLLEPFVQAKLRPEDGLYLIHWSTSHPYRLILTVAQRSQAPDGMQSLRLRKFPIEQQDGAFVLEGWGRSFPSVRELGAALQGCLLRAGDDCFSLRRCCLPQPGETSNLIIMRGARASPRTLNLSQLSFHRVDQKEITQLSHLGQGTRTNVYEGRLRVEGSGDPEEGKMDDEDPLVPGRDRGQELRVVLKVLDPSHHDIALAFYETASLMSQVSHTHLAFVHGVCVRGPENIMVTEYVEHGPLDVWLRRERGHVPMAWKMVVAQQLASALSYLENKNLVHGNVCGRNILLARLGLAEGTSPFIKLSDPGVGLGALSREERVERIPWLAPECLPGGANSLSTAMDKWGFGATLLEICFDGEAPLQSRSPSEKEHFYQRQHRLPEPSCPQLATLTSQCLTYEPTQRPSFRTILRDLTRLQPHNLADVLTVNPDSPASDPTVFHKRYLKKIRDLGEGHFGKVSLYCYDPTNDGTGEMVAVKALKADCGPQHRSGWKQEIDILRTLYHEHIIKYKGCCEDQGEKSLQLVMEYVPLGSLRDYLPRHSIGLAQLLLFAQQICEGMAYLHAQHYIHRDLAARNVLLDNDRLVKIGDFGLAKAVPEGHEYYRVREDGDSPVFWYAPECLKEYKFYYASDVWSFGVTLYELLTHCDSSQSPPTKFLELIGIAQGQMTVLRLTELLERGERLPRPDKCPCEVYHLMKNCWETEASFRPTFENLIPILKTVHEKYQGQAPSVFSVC
Experimental: as §1, §2, §3

JAK2 = JAK2 (Homo sapiens (Human), UniProt O60674); experiment: JAK Caliper Enzyme Assay at 1 mM ATP (JAK2)
Sequence of JAK2 (O60674 whole entry, species assumed): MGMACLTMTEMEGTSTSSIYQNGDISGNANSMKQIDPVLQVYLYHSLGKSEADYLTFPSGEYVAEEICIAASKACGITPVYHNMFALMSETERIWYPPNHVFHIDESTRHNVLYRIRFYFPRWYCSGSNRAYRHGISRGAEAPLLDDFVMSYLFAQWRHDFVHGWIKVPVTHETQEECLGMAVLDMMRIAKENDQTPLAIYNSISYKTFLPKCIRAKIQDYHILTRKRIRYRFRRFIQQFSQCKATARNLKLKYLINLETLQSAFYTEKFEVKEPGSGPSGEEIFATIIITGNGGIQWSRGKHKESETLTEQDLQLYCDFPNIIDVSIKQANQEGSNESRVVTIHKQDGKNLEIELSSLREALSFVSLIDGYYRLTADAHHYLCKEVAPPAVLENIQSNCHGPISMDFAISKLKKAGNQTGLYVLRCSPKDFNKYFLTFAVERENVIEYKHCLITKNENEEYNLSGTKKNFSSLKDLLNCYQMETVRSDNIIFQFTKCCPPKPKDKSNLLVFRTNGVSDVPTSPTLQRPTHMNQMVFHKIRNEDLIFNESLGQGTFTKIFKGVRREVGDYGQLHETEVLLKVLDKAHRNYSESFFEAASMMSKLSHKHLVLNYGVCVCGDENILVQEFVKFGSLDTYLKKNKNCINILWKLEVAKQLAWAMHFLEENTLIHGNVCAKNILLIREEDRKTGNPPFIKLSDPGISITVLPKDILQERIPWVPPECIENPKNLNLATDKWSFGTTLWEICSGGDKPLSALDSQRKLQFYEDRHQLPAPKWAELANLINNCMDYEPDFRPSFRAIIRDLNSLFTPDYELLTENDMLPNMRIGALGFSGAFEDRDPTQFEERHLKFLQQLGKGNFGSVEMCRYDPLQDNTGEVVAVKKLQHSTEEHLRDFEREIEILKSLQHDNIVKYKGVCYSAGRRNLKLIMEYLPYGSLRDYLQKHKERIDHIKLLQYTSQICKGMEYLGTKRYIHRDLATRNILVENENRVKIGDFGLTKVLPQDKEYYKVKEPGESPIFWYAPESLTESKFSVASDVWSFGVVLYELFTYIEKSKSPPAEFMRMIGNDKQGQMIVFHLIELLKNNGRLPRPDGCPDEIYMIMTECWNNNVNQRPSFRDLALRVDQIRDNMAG
Experimental: as §1, §2, §3

Sequence of JAK1 (P23458 whole entry, species assumed): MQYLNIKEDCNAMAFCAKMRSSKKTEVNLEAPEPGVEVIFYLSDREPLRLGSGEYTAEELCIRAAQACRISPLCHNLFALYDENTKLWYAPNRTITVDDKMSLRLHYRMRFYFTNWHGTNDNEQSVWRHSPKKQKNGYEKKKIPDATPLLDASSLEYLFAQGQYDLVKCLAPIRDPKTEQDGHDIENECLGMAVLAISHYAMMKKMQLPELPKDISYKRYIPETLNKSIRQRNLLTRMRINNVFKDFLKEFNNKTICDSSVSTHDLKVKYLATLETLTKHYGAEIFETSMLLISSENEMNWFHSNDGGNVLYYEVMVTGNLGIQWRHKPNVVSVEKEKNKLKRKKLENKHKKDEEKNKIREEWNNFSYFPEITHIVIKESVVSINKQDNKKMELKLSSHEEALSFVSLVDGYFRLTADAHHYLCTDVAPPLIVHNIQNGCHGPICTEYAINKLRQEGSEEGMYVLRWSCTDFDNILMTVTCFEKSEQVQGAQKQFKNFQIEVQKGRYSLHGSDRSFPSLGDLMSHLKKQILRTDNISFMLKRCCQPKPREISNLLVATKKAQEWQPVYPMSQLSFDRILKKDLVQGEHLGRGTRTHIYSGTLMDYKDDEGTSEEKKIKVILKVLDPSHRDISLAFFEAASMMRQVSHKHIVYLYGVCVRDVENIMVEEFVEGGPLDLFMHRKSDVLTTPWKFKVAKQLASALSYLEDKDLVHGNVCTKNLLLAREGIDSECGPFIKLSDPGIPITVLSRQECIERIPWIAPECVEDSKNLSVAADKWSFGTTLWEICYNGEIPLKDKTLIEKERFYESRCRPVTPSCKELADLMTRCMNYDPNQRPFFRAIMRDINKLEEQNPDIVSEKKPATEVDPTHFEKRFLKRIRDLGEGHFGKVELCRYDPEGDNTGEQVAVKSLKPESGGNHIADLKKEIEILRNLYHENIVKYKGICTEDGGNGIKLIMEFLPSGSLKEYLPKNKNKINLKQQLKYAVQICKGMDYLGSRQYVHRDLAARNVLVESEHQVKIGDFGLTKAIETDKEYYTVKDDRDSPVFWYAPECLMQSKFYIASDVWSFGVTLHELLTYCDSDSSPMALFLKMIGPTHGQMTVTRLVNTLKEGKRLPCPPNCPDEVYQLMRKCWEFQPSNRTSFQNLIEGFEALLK

Compound	IC50 (JAK1) [nM]	IC50 (JAK3) [nM]	IC50 (TYK2) [nM]	IC50 (JAK2) [nM]
Oc1cc(CC(F)(F)F)c(-c2nc(NCCC3CC3)c3cn[nH]c3n2)cc1F [Example 152, 4-{4-[(2-cyclopropylethyl)amino]-1H-pyrazolo[3,4-d]pyrimidin-6-yl}-2-fluoro-5-(2,2,2-trifluoroethyl)phenol]	41.6	157	–	228
N-benzyl-2-[6-(2-ethyl-4-hydroxyphenyl)-1H-pyrazolo[4,3-c]pyridin-4-yl]-1,2,3,4-tetrahydroiso-quinoline-5-carboxamide formate [Example 117]	–	41.6	425	–
CNC(=O)c1n[nH]c2cc(-c3cc(F)c(O)cc3C3CC3)nc(NCc3cccnc3N(C)S(C)(=O)=O)c12 [Example 49, 6-(2-cyclopropyl-5-fluoro-4-hydroxyphenyl)-N-methyl-4-[({2-[methyl(methylsulfonyl)amino]pyridin-3-yl}methyl)amino]-1H-pyrazolo[4,3-c]pyridine-3-carboxamide]	78	248	–	181
CCCCNc1nc(-c2cc(F)c(O)cc2CC(F)(F)F)nc2[nH]ncc12 [Example 154, 4-[4-(butylamino)-1H-pyrazolo[3,4-d]pyrimidin-6-yl]-2-fluoro-5-(2,2,2-trifluoroethyl)phenol]	77.6	228	5140	–
CNC(=O)c1n[nH]c2cc(-c3cc(F)c(O)cc3CC(F)(F)F)nc(NCc3ccccc3CS(N)(=O)=O)c12 [Example 64, 6-[5-fluoro-4-hydroxy-2-(2,2,2-trifluoroethyl)phenyl]-N-methyl-4-{[2-(sulfamoylmethyl)benzyl]amino}-1H-pyrazolo[4,3-c]pyridine-3-carboxamide]	3.3	36.9	153	–
CN(c1ccc(O)cc1CNc1nc(-c2cc(F)c(O)cc2CC(F)(F)F)cc2[nH]nc(C(N)=O)c12)S(=O)(=O)c1ccccc1 [Example 42, 6-[5-fluoro-4-hydroxy-2-(2,2,2-trifluoroethyl)phenyl]-4-({5-hydroxy-2-[methyl(phenylsulfonyl)-amino]benzyl}amino)-1H-pyrazolo[4,3-c]pyridine-3-carboxamide]	25.3	534	233	–
Cc1ccc(N(C)S(C)(=O)=O)c(CNc2nc(-c3cc(F)c(O)cc3CC(F)(F)F)cc3[nH]nc(C(N)=O)c23)c1 [Example 81, 6-[5-fluoro-4-hydroxy-2-(2,2,2-trifluoroethyl)phenyl]-4-({5-methyl-2-[methyl(methylsulfonyl)-amino]benzyl}amino)-1H-pyrazolo[4,3-c]pyridine-3-carboxamide]	4.7	103	298	–
CNC(=O)c1n[nH]c2cc(-c3cc(F)c(O)cc3C3CC3)nc(NCc3ccccc3N(C)S(C)(=O)=O)c12 [Example 37, 6-(2-cyclopropyl-5-fluoro-4-hydroxyphenyl)-N-methyl-4-({2-[methyl(methyl-sulfonyl)amino]benzyl}amino)-1H-pyrazolo[4,3-c]pyridine-3-carboxamide]	5	52	169	–
CCc1cc(O)c(F)cc1-c1cc2[nH]nc(C(=O)NC)c2c(NCc2ccc(O)cc2N(C)S(C)(=O)=O)n1 [Example 29, 6-(2-Ethyl-5-fluoro-4-hydroxyphenyl)-4-({4-hydroxy-2-[methyl(methylsulfonyl)amino]benzyl}amino)-N-methyl-1H-pyrazolo[4,3-c]pyridine-3-carboxamide]	1.5	33.2	19	–
CN(c1ccc(O)cc1CNc1nc(-c2cc(F)c(O)cc2CC(F)(F)F)nc2[nH]nc(-c3nnc(C4CCN(C(N)=O)CC4)[nH]3)c12)S(C)(=O)=O [Example 167, 4-(5-{6-[5-Fluoro-4-hydroxy-2-(2,2,2-trifluoroethyl)phenyl]-4-({5-hydroxy-2-[methyl(methylsulfonyl)amino]benzyl}amino)-1H-pyrazolo[3,4-d]pyrimidin-3-yl}-4H-1,2,4-triazol-3-yl)piperidine-1-carboxamide]	4.1	47.4	310	–
CCc1cc(O)c(F)cc1-c1cc2[nH]ncc2c(N(CCc2ccc(OC)c(OC)c2)Cc2ccccc2N(C)S(C)(=O)=O)n1 [Example 129, N-[2-({[2-(3,4-dimethoxyphenyl)ethyl][6-(2-ethyl-5-fluoro-4-hydroxyphenyl)-1H-pyrazolo[4,3-c]pyridin-4-yl]amino}methyl)phenyl]-N-methylmethanesulfonamide hydrochloride]	11.6	180	56.6	–
CCN(c1ccccc1CNc1nc(-c2cc(F)c(O)cc2CC(F)(F)F)cc2[nH]nc(C(N)=O)c12)S(=O)(=O)CC [Example 82, 4-((2-(N-ethylethylsulfonamido)benzyl)amino)-6-(5-fluoro-4-hydroxy-2-(2,2,2-trifluoroethyl)phenyl)-1H-pyrazolo[4,3-c]pyridine-3-carboxamide]	13.7	313	121	–
CNC(=O)c1n[nH]c2cc(-c3cc(F)c(O)cc3CC(F)(F)F)nc(NCc3cccnc3N(C)S(C)(=O)=O)c12 [Example 53, 6-[5-fluoro-4-hydroxy-2-(2,2,2-trifluoroethyl)phenyl]-N-methyl-4-[({2-[methyl(methylsulfonyl)amino]pyridin-3-yl}methyl)amino]-1H-pyrazolo[4,3-c]pyridine-3-carboxamide]	9.7	102	243	–

Further compounds by falling IC50 (JAK3), results first:

IC50 (JAK1) [nM]	IC50 (JAK3) [nM]	IC50 (TYK2) [nM]	IC50 (JAK2) [nM]	Compound
25.8	293	999	–	CNC(=O)c1n[nH]c2cc(-c3cc(F)c(O)cc3CC(F)(F)F)nc(NCc3nccnc3N(C)S(=O)(=O)c3ccccc3)c12 [Example 44, 6-[5-fluoro-4-hydroxy-2-(2,2,2-trifluoroethyl)phenyl]-N-methyl-4-[({3-[methyl(phenylsulfonyl)amino]pyrazin-2-yl}methyl)amino]-1H-pyrazolo[4,3-c]pyridine-3-carboxamide]
67.6	148	–	188	CNC(=O)c1n[nH]c2cc(-c3cc(F)c(O)cc3CC(F)(F)F)nc(NCc3cnccc3N(C)S(C)(=O)=O)c12 [Example 48, 6-[5-fluoro-4-hydroxy-2-(2,2,2-trifluoroethyl)phenyl]-N-methyl-4-[({4-[methyl(methylsulfonyl)amino]pyridin-3-yl}methyl)amino]-1H-pyrazolo[4,3-c]pyridine-3-carboxamide]
18.1	131	–	53.5	CCc1cc(O)c(F)cc1-c1cc2[nH]ncc2c(N(CCN2CCOCC2)Cc2ccccc2N(C)S(C)(=O)=O)n1 [Example 140, N-[2-({[6-(2-ethyl-5-fluoro-4-hydroxyphenyl)-1H-pyrazolo[4,3-c]pyridin-4-yl][2-(morpholin-4-yl)ethyl]amino}methyl)phenyl]-N-methylmethanesulfonamide]
33.9	125	2980	–	Oc1cc(CC(F)(F)F)c(-c2nc(NCC3CC3)c3cn[nH]c3n2)cc1F [Example 151, 4-{4-[(cyclopropylmethyl)-amino]-1H-pyrazolo[3,4-d]pyrimidin-6-yl}-2-fluoro-5-(2,2,2-trifluoroethyl)phenol]
10.8	89.2	–	128	CCc1cc(O)ccc1-c1cc2[nH]ncc2c(N2CC(Oc3cc(C#N)ccc3Cl)C2)n1 [Example 120, 4-chloro-3-({1-[6-(2-ethyl-4-hydroxyphenyl)-1H-pyrazolo[4,3-c]pyridin-4-yl]azetidin-3-yl}oxy)benzonitrile formate]
10.5	51.1	–	–	CS(=O)(=O)N(CCO)c1ccccc1CNc1nc(-c2cc(F)c(O)cc2CC(F)(F)F)nc2[nH]nc(C(N)=O)c12 [Example 101, 6-(5-fluoro-4-hydroxy-2-(2,2,2-trifluoroethyl)phenyl)-4-((2-(N-(2-hydroxyethyl)methylsulfonamido)benzyl)amino)-1H-pyrazolo[3,4-d]pyrimidine-3-carboxamide]
4.9	39.6	600	–	CN(c1ccccc1CNc1nc(-c2cc(F)c(O)cc2CC(F)(F)F)nc2[nH]nc(C(N)=O)c12)S(C)(=O)=O [Example 98, 6-(5-Fluoro-4-hydroxy-2-(2,2,2-trifluoroethyl)phenyl)-4-((2-(N-methylmethylsulfonamido)benzyl)amino)-1H-pyrazolo[3,4-d]pyrimidine-3-carboxamide]
1.7	26.6	15.3	–	CCc1cc(O)c(F)cc1-c1cc2[nH]nc(C(=O)NC)c2c(NCCc2ccc(O)cc2)n1 [Example 4, 6-(2-ethyl-5-fluoro-4-hydroxyphenyl)-4-{[2-(4-hydroxyphenyl)ethyl]amino}-N-methyl-1H-pyrazolo[4,3-c]pyridine-3-carboxamide]
–	14.2	4.8	2.6	N-ethyl-N-[2-({[6-(2-ethyl-5-fluoro-4-hydroxyphenyl)-1H-pyrazolo[4,3-c]pyridin-4-yl]amino}methyl)phenyl]ethanesulfonamide [Example 138]
0.2	4.4	5.6	–	CCc1cc(O)ccc1-c1cc2[nH]ncc2c(NCc2ccccc2N(C)S(C)(=O)=O)n1 [Example 125, N-[2-({[6-(2-Ethyl-4-hydroxyphenyl)-1H-pyrazolo[4,3-c]pyridin-4-yl]amino}methyl)phenyl]-N-methylmethanesulfonamide hydrochloride]
